Data reported in patent publication US6818391B2, “Glutamate transporters” (The Regents of the University of California, priority 2000, dated 2004).
“Also recorded” adds a separate entry of the source.

What was measured:
BNPI (VGLUT1) = target: T1, BNPI (VGLUT1) (Rattus norvegicus, UniProt Q62634); experiment: 3H-glutamate uptake by membranes from PC12 cells expressing BNPI; format: biochemical; settings: for inhibition of 3H-glutamate uptake by membranes expressing BNPI: uptake at 5 min; for effect on 3H-glutamate uptake by BNPI membranes: membranes preloaded with 4 mM KCl
T1 construct: expressed in transfected cells; light membranes prepared from them
T1 sequence (Q62634 1-560): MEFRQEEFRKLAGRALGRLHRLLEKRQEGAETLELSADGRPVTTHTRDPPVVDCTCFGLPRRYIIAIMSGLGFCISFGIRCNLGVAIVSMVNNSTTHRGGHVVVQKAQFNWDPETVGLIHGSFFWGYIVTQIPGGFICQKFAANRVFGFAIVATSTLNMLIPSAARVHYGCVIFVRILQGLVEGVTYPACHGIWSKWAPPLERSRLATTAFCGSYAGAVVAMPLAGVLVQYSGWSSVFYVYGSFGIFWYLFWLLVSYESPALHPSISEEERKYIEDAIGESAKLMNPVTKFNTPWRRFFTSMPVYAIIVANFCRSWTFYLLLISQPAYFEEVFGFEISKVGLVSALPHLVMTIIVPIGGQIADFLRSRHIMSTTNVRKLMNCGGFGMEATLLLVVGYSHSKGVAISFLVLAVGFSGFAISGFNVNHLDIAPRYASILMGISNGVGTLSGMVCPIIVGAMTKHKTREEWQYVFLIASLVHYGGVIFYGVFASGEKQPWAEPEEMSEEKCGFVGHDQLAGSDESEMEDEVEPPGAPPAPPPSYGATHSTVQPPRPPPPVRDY
Excerpt: Rather, the type I transporter NaPi-1 transports organic anions, including phenol red and penicillin G, with substantially higher apparent affinity than Pi (Busch et al. (1996) Proc. Natl. Acad. Sci., USA, 93: 5347). Human genetic studies have shown that mutations in another protein closely related to BNPI and NaPi-1 account for disorders of sialic acid storage (Verheijen et al. (1999) Nature Genet. 23: 462). In these conditions, sialic acid accumulates in lysosomes because of a defect in proton-driven export (Renlund et al. (1986) Science 232: 759; Mancini et al. (1989) J. Biol. Chem. 264: 15247; Tietze et al. (1989) J. Biol. Chem. 264: 15316; Mancini et al. (1992) Proc. Natl. Acad. Sci., USA, 89: 6609). […] To determine whether BNPI mediates the transport of glutamate into synaptic vesicles, we transfected the rat BNPI cDNA into rat pheochromocytoma PC12 cells, which lack detectable endogenous BNPI protein. The rat BNPI cDNA was stably expressed in PC12 cells, and immunofluorescence for BNPI was used to identify the most highly expressing cell clones. Membranes were prepared by homogenizing the washed cells in SH buffer [0.32 M sucrose and 10 mM Hepes-KOH (pH 7.4)] containing protease inhibitors and by pelleting the nuclei at 1000 g for 5 min and the heavier membranes at 27,000 g for 35 min. The supernatant containing lighter membranes was then pelleted at 210,000 g for 1 hour and resuspended in SH buffer with protease inhibitors at a final concentration of ˜10 μg protein/μl.
We then prepared a population of light membranes, including synaptic-like microvesicles, from the transfected and untransfected cells (McIntire et al. (1997) Nature 389: 870) and tested their ability to accumulate 3H-glutamate in the presence of 4 mM chloride and ATP, conditions that optimize glutamate accumulation by native synaptic vesicles (Maycox et al. (1988) J. Biol. Chem., 263: 15423; Carlson et al. […] J. Biol. Chem. 264: 7369). To initiate the transport reaction, we added 10 μl of membranes to 190 μl of SH buffer containing 4 mM KCl, 4 mM MgSO4, 4 mM ATP, and 50 μM 3H-glutamate, with other additions noted in the text and figure legends. The reaction mixture was incubated at 29° C. for varying times, and the uptake was terminated by rapid filtration, followed by immediate washes with 6 ml of cold 0.155 M potassium tartrate and 10 mM Hepes (pH 7.4). Background uptake was determined using membranes prepared from untransfected cells that were incubated for the same amount of time at the same temperature. Transport measurements were performed in duplicate with at least two different preparations of membranes. The Km was calculated by averaging the results of two separate determinations.

DNPI/VGLUT2 = target: T2, DNPI/VGLUT2 (Rattus norvegicus, UniProt Q9JI12); experiment: 3H-L-glutamate uptake by membranes from PC12 cells expressing DNPI/VGLUT2; format: biochemical; settings: for inhibition of DNPI-mediated 3H-L-glutamate uptake: uptake at 5 minutes; for effect on 3H-glutamate uptake by DNPI membranes: preloaded 4 mM KCl, 5 minutes
T2 construct: To reconstruct the full open reading frame, the missing segment was amplified from rat brain cDNA by PCR; expressed in transfected cells; light membranes prepared from them
T2 sequence (Q9JI12 1-582): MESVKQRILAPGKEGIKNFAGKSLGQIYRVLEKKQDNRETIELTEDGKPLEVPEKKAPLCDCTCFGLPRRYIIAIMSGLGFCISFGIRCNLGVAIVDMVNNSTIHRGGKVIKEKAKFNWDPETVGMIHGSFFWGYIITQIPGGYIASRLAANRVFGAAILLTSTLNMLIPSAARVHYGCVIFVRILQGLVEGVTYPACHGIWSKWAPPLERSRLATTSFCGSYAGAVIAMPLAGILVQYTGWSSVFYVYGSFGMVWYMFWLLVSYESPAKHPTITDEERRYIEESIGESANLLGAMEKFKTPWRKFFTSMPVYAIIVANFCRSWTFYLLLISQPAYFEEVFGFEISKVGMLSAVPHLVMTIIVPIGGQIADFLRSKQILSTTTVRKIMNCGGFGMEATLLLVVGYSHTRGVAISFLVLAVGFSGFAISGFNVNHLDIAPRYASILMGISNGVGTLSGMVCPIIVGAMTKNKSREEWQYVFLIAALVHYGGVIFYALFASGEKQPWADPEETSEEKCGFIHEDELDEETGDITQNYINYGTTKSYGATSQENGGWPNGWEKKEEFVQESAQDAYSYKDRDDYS
Procedure: PC12 cells were grown in Dulbecco's modified Eagle's medium containing 10% equine serum, 5% calf serum and transfected by electroporation with the rat DNPI/VGLUT2 cDNA subcloned in the pcDNA3 vector containing an […] (Krantz et al. (2000) J. Cell Biol. 149). Stable transformants were selected for resistance to the neomycin analog G418 (500 μg/ml) and screened by immunofluorescence with the DNPI antibody, resulting in the identification of two independent clones with more than 80% of the cells expressing DNPI.
For membrane preparation, untransfected and DNPI-expressing PC12 cells were grown on 15 cm plates, washed with calcium- and magnesium-free PBS, collected in 0.32 M sucrose/10 mM HEPES-KOH, pH 7.4 (SH buffer) containing protease inhibitors (2 μg/ml leupeptin, 1 μg/ml pepstatin, 1 μg/ml E64, 0.2 mM diisopropylfluorphosphate, 2 μg/ml aprotinin, and 1.25 mM MgEGTA), homogenized using a ball bearing device and the homogenate sedimented at 1000 g for 5 min to remove nuclei and debris. The supernatant was then sedimented at 27,000 g for 35 min to remove heavier membranes. The remaining light membranes including small synaptic-like microvesicles were then sedimented at 210,000 g for 1 hour. The pellet was resuspended in SH buffer with protease inhibitors at ˜10 mg protein/ml.
To initiate the transport reaction, 20 μl membranes (˜200 μg protein) were added to 180 μl SH buffer containing 4 mM KCl, 4 mM MgSO4, […], and 100 μM ^3H-L-glutamate, with other additions noted in the text and figure legends. The reaction mixture was incubated at 29° C. for varying intervals, uptake was terminated by rapid filtration through Supor-200 membranes (Gelman) and the filters were washed rapidly four times with 1.5 ml cold 0.155 M potassium tartrate/10 mm HEPES-KOH, pH 7.4 before measuring the bound radioactivity by scintillation counting in 3 ml Cytoscint (ICN). Uptake specifically mediated by DNPI/VGLUT2 was determined by subtracting the background uptake of untransfected cell membranes from the uptake by transfected cell membranes. To examine the chloride dependence of transport, varying proportions of 0.14 M K gluconate and 0.14 M KCl were mixed in the standard reaction buffer (without sucrose) to vary the chloride concentration and maintain constant osmolarity. The ionophores nigericin and valinomycin used in FIG. 13E were prepared as 200× stock solutions in ethanol. The final ethanol concentration in the reaction mixture was 1%.

synaptic vesicles = settings: cited from earlier work
[1] = system: untransfected PC12 cell membranes; experiment: background 3H-glutamate uptake by membranes from untransfected PC12 cells; format: biochemical, rat; settings: uptake at 5 min
Procedure: To initiate the transport reaction, we added 10 μl of membranes to 190 μl of SH buffer containing 4 mM KCl, 4 mM MgSO4, 4 mM ATP, and 50 μM 3H-glutamate, with other additions noted in the text and figure legends. […] Background uptake was determined using membranes prepared from untransfected cells that were incubated for the same amount of time at the same temperature. Transport measurements were performed in duplicate with at least two different preparations of membranes. The Km was calculated by averaging the results of two separate determinations.

In the case of `O=P(O)(O)O` [Pi, inorganic phosphate], the “inhibition of 3H-glutamate uptake by membranes expressing BNPI” value (from here on “inhibition of 3H-glutamate uptake”) (BNPI (VGLUT1); 10 mM) is reported as “did not inhibit; also recorded: has little effect” and the “inhibition of 3H-L-glutamate uptake by DNPI” value (DNPI/VGLUT2; Pi, data not shown) is reported as “does not”.
With `N[C@H](CCC(=O)O)C(=O)O` [D-Glutamate] the “inhibition of 3H-glutamate uptake” value (BNPI (VGLUT1); 10 mM) was “partially inhibits”, the “inhibition of DNPI-mediated 3H-L-glutamate uptake” value (DNPI/VGLUT2; 10 mM) was “significantly inhibit” and the “inhibition of DNPI-mediated 3H-L-glutamate uptake” value (DNPI/VGLUT2; 10 mM, listed as D-glutamate) was “inhibit uptake”.
With `N[C@H](CC(=O)O)C(=O)O` [D-aspartate] the “inhibition of DNPI-mediated 3H-L-glutamate uptake” value (DNPI/VGLUT2; 10 mM) was “not”.
With `NC(=O)CC[C@H](N)C(=O)O` [L-glutamine] the “inhibition of 3H-glutamate uptake” value (BNPI (VGLUT1); 10 mM) was “had no effect and not”.
For `CC(C)[C@@H]1NC(=O)[C@H](C)OC(=O)[C@@H](C(C)C)NC(=O)[C@@H](C(C)C)OC(=O)[C@H](C(C)C)NC(=O)[C@H](C)OC(=O)[C@@H](C(C)C)NC(=O)[C@@H](C(C)C)OC(=O)[C@H](C(C)C)NC(=O)[C@H](C)OC(=O)[C@@H](C(C)C)NC(=O)[C@@H](C(C)C)OC1=O` [valinomycin], the “effect on 3H-glutamate uptake by BNPI membranes” value (BNPI (VGLUT1); valinomycin 20 μM) was “substantially reduces glutamate uptake” and the “effect on 3H-glutamate uptake by DNPI membranes” value (DNPI/VGLUT2; 20 μM valinomycin) was “inhibits”.
With `NCCCC(=O)O` [GABA, γ-aminobutyric acid] the “inhibition of DNPI-mediated 3H-L-glutamate uptake” value (DNPI/VGLUT2; 10 mM) was “not”.
For `Cc1cc(-c2ccc(/N=N/c3ccc4c(S(=O)(=O)O)cc(S(=O)(=O)O)c(N)c4c3O)c(C)c2)ccc1/N=N/c1ccc2c(S(=O)(=O)O)cc(S(=O)(=O)O)c(N)c2c1O` [Evans blue], the “inhibition of glutamate transport into synaptic vesicles” value (synaptic vesicles; low micromolar concentrations) is given as “inhibited the transport”, the “inhibition of 3H-glutamate uptake” value (BNPI (VGLUT1); Evans blue 5 μM (low micromolar)) is given as “inhibited the transport; also recorded: inhibits BNPI activity dramatically” and the “effect on background glutamate uptake by untransfected cell membranes” value [1] is given as “had little effect”. For the same compound, the “inhibition of DNPI-mediated 3H-L-glutamate uptake” value (DNPI/VGLUT2; Evans Blue 4.5 μM) was “inhibit uptake; also recorded: significantly inhibit”.
In the case of `O=S(=O)(O)c1cc(N=C=S)ccc1C=Cc1ccc(N=C=S)cc1S(=O)(=O)O` [DIDS, 4,4′-diisothiocyanatostilbene-2,2′-disulfonic acid], the IC50 (synaptic vesicles; read-out: median inhibitory concentration, glutamate transport by synaptic vesicles) is given as ~0.7 µM, the “inhibition of 3H-glutamate uptake” value (BNPI (VGLUT1); 1 μM DIDS) is given as “blocks transport only partly” and the inhibition at 1 µM (BNPI (VGLUT1); 1 μM DIDS, read-out: inhibition of 3H-glutamate transport mediated by BNPI) is given as ~60%.
For `CO[C@@H]1C[C@@H](C[C@H]2CC[C@H](C)[C@H]([C@@H](C)C(=O)O)O2)O[C@]2(O[C@](C)([C@H]3CC[C@@](C)([C@@H]4O[C@@H]([C@H]5O[C@@](O)(CO)[C@H](C)C[C@@H]5C)C[C@@H]4C)O3)C[C@H]2C)[C@@H]1C` [nigericin], the “effect on 3H-glutamate uptake by BNPI membranes” value (BNPI (VGLUT1); nigericin 5 μM) was “increases the uptake” and the “effect on 3H-glutamate uptake by DNPI membranes” value (DNPI/VGLUT2; 5 μM nigericin) was “did not significantly reduce transport”.
For `NCC(=O)O` [glycine], the “inhibition of DNPI-mediated 3H-L-glutamate uptake” value (DNPI/VGLUT2; 10 mM) was “not”.
